Laboratory results published in patent US20230000876A1, “TREATING CANCERS WITH A CYCLIN-DEPENDENT KINASE INHIBITOR” (Nuvation Bio Inc., priority 2021, published 2023).

Assays:
22Rv1 tumors = test: 22Rv1 prostate tumor model (Example 3); format: in vivo, male Balb/c nude mice; conditions: for Tumor volume (mean ± SEM): 30 mg/kg PO QD
Experimental: The in vivo anti-tumor efficacy of the compound of formula (I) either alone or in combination with enzalutamide prostate tumor model on male Balb/c nude mice was evaluated. The cell line is derived from a xenograft that was serially propagated in mice after castration—induced regression and relapse of the parental, androgen-dependent CWR22 xenograft.
In the study, the compound of formula (I) was dosed orally (po) once daily (QD) and enzalutamide, when administered, was dosed orally once daily for 25 days, as shown in Table 8.
The 22Rv1 tumor cells were maintained in vitro in RPMI1640 medium supplemented with 10% heat inactivated fetal bovine serum at 37° C. in an atmosphere of 5% CO2 in air. The tumor cells were routinely subcultured twice weekly. The cells growing in an exponential growth phase were harvested and counted for tumor inoculation.
Each mouse was inoculated subcutaneously at the right flank with 22Rv1 tumor cells (5*10^6) with 50% Matrigel for tumor development. The treatments were started on day 7 after tumor inoculation when the average tumor volume reached 94 mm^3. A total of 48 mice were selected and assigned into 6 groups. The testing articles were administrated to the mice according to Table 8.
The major endpoint was to see if the tumor growth could be delayed or mice could be cured. Tumor size was measured twice weekly in two dimensions using a caliper, and the volume was expressed in mm^3 using the formula: V=0.5 a×b^2 where a and b are the long and short diameters of the tumor, respectively. The tumor sizes are then used for the calculation of T/C and TGI values.
The T/C value (in percent) is an indication of antitumor effectiveness; T and C are the mean volume of the treated and control groups, respectively, on a given day.
TGI was calculated for each group using the formula: TGI (%)=[1−(Ti−T0)/(Vi−V0)]×100; Ti is the average tumor volume of a treatment group on PG-Di, T0 is the average tumor volume of the treatment group on the day of treatment start, Vi is the average tumor volume of the vehicle control group on the same day with Ti, and V0 is the average tumor volume of the vehicle group on the day of treatment start.
All groups were taken down on PG-D24 and PG-D25 when the average tumor size of vehicle group reached 2305 mm^3.
Summary statistics, including mean and the standard error of the mean (SEM), are provided for the tumor volume of each group at each time point. For comparison among groups, a one-way ANOVA was performed. All the analysis were conducted using GraphPad Prism software. p<0.05 was considered to be statistically significant.

VCap prostate cancer = test: Non-castrated VCap prostate cancer model; format: in vivo, male CB17/Scid mice; conditions: Group 2: Enzalutamide 20 mg/kg p.o. QD * 26 days
Experimental: Compound (I), enzalutamide, and abiraterone were tested in non-castrated VCap prostate cancer model in male CB17/Scid mice.
All treatment groups reduced mean tumor volume.

[1] = test system: tumor fragments from a mCRPC patient; test: Enzalutamide-resistant patient-derived xenograft prostate model (ST2347 PDX); format: in vivo, male Balb/c nude mice; conditions: 30 mg/kg oral QD
[2] = enzalutamide 30 mg/kg QD, PG-D24

CNC(=O)c1ccc(N2C(=S)N(c3ccc(C#N)c(C(F)(F)F)c3)C(=O)C2(C)C)cc1F [Enzalutamide, reference compound]
Tumor volume (mean ± SEM) (22Rv1 tumors; day 0): 94 ± 4 mm^3
Tumor volume (mean ± SEM) (22Rv1 tumors; day 3): 177 ± 13 mm^3
Tumor volume (mean ± SEM) (22Rv1 tumors; day 7): 345 ± 23 mm^3
Tumor volume (mean ± SEM) (22Rv1 tumors; day 10): 507 ± 53 mm^3
Tumor volume (mean ± SEM) (22Rv1 tumors; day 14): 825 ± 65 mm^3
Tumor volume (mean ± SEM) (22Rv1 tumors; day 17): 1115 ± 65 mm^3
Tumor volume (mean ± SEM) (22Rv1 tumors; day 21): 1531 ± 143 mm^3
Tumor volume (mean ± SEM) (22Rv1 tumors; day 24): 1814 ± 186 mm^3
T/C (22Rv1 tumors; [2]): 78.69%
TGI (22Rv1 tumors; [2]): 22.17%
Tumor volume (mean ± SEM) (VCap prostate cancer; Day 0): 171.8 ± 6.1 mm^3
Tumor volume (mean ± SEM) (VCap prostate cancer; Day 4): 287.4 ± 17^ mm^3
Tumor volume (mean ± SEM) (VCap prostate cancer; Day 7): 352.2 ± 28.8 mm^3
Tumor volume (mean ± SEM) (VCap prostate cancer; Day 11): 542.8 ± 50.7 mm^3
Tumor volume (mean ± SEM) (VCap prostate cancer; Day 14): 662.7 ± 51.7 mm^3
Tumor volume (mean ± SEM) (VCap prostate cancer; Day 18): 761.9 ± 60.9 mm^3
Tumor volume (mean ± SEM) (VCap prostate cancer; Day 21): 891.2 ± 82.8 mm^3
Tumor volume (mean ± SEM) (VCap prostate cancer; Day 25): 1005.9 ± 71.4 mm^3
Antitumor activity over the course of the treatment [1]: minimal effect
